The source of these data is patent publication US20140031427A1, “COMBINATIONS OF ADAPALENE AND BENZOYL PEROXIDE FOR TREATING ACNE LESIONS” (GALDERMA RESEARCH & DEVELOPMENT, priority 2006, published 2014).

In one data set the test system is TPA-induced ear edema. Nature of the data set: Anti-inflammatory evaluation in TPA-induced ear oedema model. Format: in vivo, Balb/c mice. Particulars: T+6 hours. The protocol:
The study was carried out with 45 (5 par groups) female 9 weeks aged Balb/c ByJIc mice.
The Edema was induced by a single application of 20 μl of TPA dissolved in acetone at 0.01%.
The treatment was administrated by single topical application of tested compounds dissolved in TPA at 0.01% (groups 3, 4, 5, 6 and 7) and dissolved in TPA 0.01%+BPO (groups 8, 9 and 10).
The treatments activity was measured by inflammation evaluation with ear thickness at T+6 hours.

Data set [1] is described as follows: Pooled analysis of three adapalene-BPO clinical studies: safety (adverse events, local facial tolerability). In kind it is in vivo, human. Particulars: 12 weeks, safety population; adapalene 0.1%, BPO 2.5%. The protocol: (§1) Three multicenter, double-blind, randomized and controlled studies on the efficacy and safety of adapalene-BPO were conducted in 157 centers in the U.S, Puerto Rico, Canada, Germany, Poland and Hungary.^19-21 Patients were randomized to receive adapalene 0.1%-BPO 2.5% (Epiduo®, Galderma Laboratories), adapalene 0.1%, BPO 2.5% or vehicle once daily in the evening for 12 weeks. Adapalene and BPO used in the studies were formulated in the same gel vehicle as adapalene-BPO, instead of as the respective commercial products (Differin® and Benzac®, Galderma Laboratories). Efficacy and safety assessments were performed at each study visit, occurred at baseline, weeks 1, 2, 4, 8 and 12.
Safety of the treatments was evaluated through reporting of adverse events (AE) and assessments of local facial tolerability. At each study visit, the investigators rated signs of erythema, scaling, dryness and stinging/burning on a scale from 0 (none) to 3 (severe).
(§2) Data from the three studies were pooled and analyzed. Efficacy was evaluated in the intent-to-treat (ITT) population, which included all patients who were randomized and dispensed study medicine. Safety was assessed in the safety population, which included all patients who were randomized and treated at least once.

For another data set, the system named is acne vulgaris lesions. Nature of the data set: Pooled analysis of three adapalene-BPO clinical studies (3855 patients): efficacy and synergy. Format: in vivo, human. Particulars: adapalene 0.1%, BPO 2.5%; for net effect (active minus vehicle), total lesions: week 1; for success rate: week 12, % patients with IGA clear or almost clear. The protocol:
as §1
Eligible patients were 12 years or older with 20 to 50 inflammatory lesions (IL), 30 to 100 non-inflammatory lesions (NIL), no cysts and no more than 1 nodule on the face. […] Lesion counts were performed on the face only excluding the nose. Specified washout periods were required for patients taking certain topical and systemic treatments. Patients were excluded if they received systemic acne treatment or had dermatological conditions requiring interfering treatments. Women were excluded if they were pregnant, nursing, or planning a pregnancy. Men were excluded if they had facial hair that would interfere with assessments.
IGA was evaluated on a scale from 0 (clear: residual hyperpigmentation and erythema may be present) to 4 (severe: entire face is involved, covered with comedones, numerous papules and pustules, and few nodules and cysts).
as §2
Efficacy was evaluated by the Cochran-Mantel-Haenzsel (CMH) test, using general association for success rate and row mean differences by relative to identified distribution (RIDIT) transformed scores for percent lesion change. All tests were 2-sided.
Synergy was defined as the efficacy of combination (adapalene-BPO) greater than the sum of efficacy of individual components (adapalene alone and BPO alone). We took into account the vehicle effect by deducting it from the effect of treatments:^25
Net effect of active agent=effect of active agent−effect of vehicle Synergy=Net effect of adapalene-BPO−(Net effect of adapalene+Net effect of BPO)>0
The degree of synergy was evaluated based on the contribution of synergy to efficacy (net effect) of adapalene-BPO:
Degree of synergy(%)=(synergy/Net effect of adapalene-BPO)×100

The test system of another data set is acne lesions. Nature of the data set: Clinical study of topical gel combining adapalene + BPO vs monads and vehicle, 517 patients, 12 weeks. In kind it is in vivo, human. Particulars: for reduction in lesions: all lesions, week 12, rounded values in text; for Degree of success / Progress of the lesions (as median absolute numbers): Number of inflammatory lesions / Progress of the lesions (as median absolute numbers): Number of non-inflammatory lesions / Progress of the lesions (as median absolute numbers): Total number of lesions / Progress of the lesions (median percentages): Number of inflammatory lesions / Progress of the lesions (median percentages): Number of non-inflammatory lesions / Progress of the lesions (median percentages): Total number of lesions: week 12, ITT, adapalene 0.1%, BPO 2.5%; for Degree of success: % patients clear or almost clear, gels once a day. The protocol: A clinical study for confirmation of efficacy was performed for a topical gel combining adapalene+benzoyl peroxide (BPO). This gel has the following formulation (expressed as % weight/total weight): The clinical study was a multi-center, randomized, double-blind study in parallel groups, to evaluate the tolerance and the efficacy of the above formulation, in comparison with its own individual active substances placed at the same doses in gels of the same formula as that of the fixed combination (individual formulae referred to as “monads”) and in comparison with the gel vehicle (placebo formula): adapalene gel (0.1%), BPO gel (2.5%) and vehicle gel. All the treatments were applied once a day for 12 weeks, to 517 patients suffering from acne. The main efficacy criteria were: the degree of success, defined as the percentage of patients considered as being “clear”, i.e., the patient has no more acne lesions (neither comedones nor inflammatory lesions), reflecting an improvement in the patient's clinical condition, or “almost clear” on the evaluation scale; the reduction of the percentage of inflammatory and non-inflammatory lesions after 12 weeks of treatment.

For data set [2] the following is noted: even in the presence of light; cited from earlier work.
The mark [3] stands for this setting: BPO at 2.5% (alone or with adapalene at 0.1%) in TPA 0.01%.
Setting [4] is: BPO at 5% (alone or with adapalene at 0.1%) in TPA 0.01%.
Setting [5] is: BPO at 10% (alone or with adapalene at 0.1%) in TPA 0.01%.
The mark [6] stands for this setting: Adapalene at 0.1% alone in TPA 0.01%.

Values joined by “and” are separate entries in the source; they are usually repeats but may differ in a detail not shown here. Equal values may be shown once.

With `O=C(OOC(=O)c1ccccc1)c1ccccc1` [BPO, benzoyl peroxide], in the data set with TPA-induced ear edema (setting [3]), the “Ear edema Mean” value came to 22.40; the “Inhibition vs TPA (%)” value was 16% and 16.4%. For the same compound, in the data set with TPA-induced ear edema (setting [4]), the “Ear edema Mean” value came out at 20.40; the “Inhibition vs TPA (%)” value was 24% and 23.9%. In addition, in the data set on TPA-induced ear edema (setting [5]), the “Ear edema Mean” value is given as 16.20; the “Inhibition vs TPA (%)” value was 40% and 39.6%. Also, the “percentage of patients who experienced treatment-related AEs” value in data set [1] came out at 8.5%. Moreover, in the data set with acne vulgaris lesions, the “net effect (active minus vehicle), total lesions” value stood at 2.4% and the success rate is given as 23.1%. In addition, in the data set on acne lesions, the reduction in lesions is given as 36%; the Degree of success was 15% and 15.4%; the “Progress of the lesions (as median absolute numbers): Number of inflammatory lesions” value is recorded as −13.0; the “Progress of the lesions (as median absolute numbers): Number of non-inflammatory lesions” value is reported as −16.0. In the data set on acne lesions, the “Progress of the lesions (as median absolute numbers): Total number of lesions” value is recorded as −27, the “Progress of the lesions (median percentages): Number of inflammatory lesions” value was −43.6%, the “Progress of the lesions (median percentages): Number of non-inflammatory lesions” value was −36.4% and the “Progress of the lesions (median percentages): Total number of lesions” value is recorded as −35.6%.
Turning to `COc1ccc(-c2ccc3cc(C(=O)O)ccc3c2)cc1C12CC3CC(CC(C3)C1)C2` [Adapalene, 6-[3-(1-Adamantyl)-4-methoxyphenyl]-2-naphthoic acid], in the data set on TPA-induced ear edema (setting [6]), the “Ear edema Mean” value worked out at 23.40; the “Inhibition vs TPA (%)” value is 13% and 12.7%. Also, the “stability when combined with BPO” value in data set [2] was “remains stable”. The “percentage of patients who experienced treatment-related AEs” value in data set [1] was found to be 15.3%. Besides, in the data set on acne vulgaris lesions, the “net effect (active minus vehicle), total lesions” value was found to be 1.4% and the success rate turned out to be 20.0%. In the data set on acne lesions, the reduction in lesions came out at 35%, the Degree of success worked out at 15.5%, the “Progress of the lesions (as median absolute numbers): Number of inflammatory lesions” value was −13.0 and the “Progress of the lesions (as median absolute numbers): Number of non-inflammatory lesions” value is reported as −17.0. Also, in the data set on acne lesions, the “Progress of the lesions (as median absolute numbers): Total number of lesions” value is −29.0, the “Progress of the lesions (median percentages): Number of inflammatory lesions” value is on record as −45.7%, the “Progress of the lesions (median percentages): Number of non-inflammatory lesions” value is −33.3% and the “Progress of the lesions (median percentages): Total number of lesions” value is −35.4%. The Degree of success with acne lesions (listed as adapalene) was 16%.
